Experimental data as given in patent US20170100489A1, “POLYETHYLENE GLYCOL-MODIFIED INTEGRIN BLOCKER HM-3 AND USE THEREOF” (HANMEI XU, priority 2012, published 2017).
Like-named read-outs stand apart in the source and are kept apart here. Marks after values point to notes of the source that are not given here. Where no end group is shown, it is not given here. mPEG‑SC20k = methoxy polyethylene glycol-succinimidyl-carbonate, 20000 Da

Key:
[1] = test system: sarcoma HT-1080 xenograft tumors; assay: Tumor growth inhibition, HT-1080 xenograft; conditions: 36.7 mg/kg
Protocol: Tumor diameter was measured with a vernier caliper. […] After administration, all mice were sacrificed. Stripped the tumors and weighed.

[2] = rat, in vivo, iv
Protocol: SD rats were randomly divided into six groups with the same number for male and female. Take three groups were administered intravenously integrin antagonist polypeptide with a high dose of 52 mg/kg (equivalent to HM-3 4.2 mg/kg), an intermediate dose of 26 mg/kg (equivalent to HM-3 2.1 mg/kg), a low-dose of 13 mg/kg (equivalent to HM-3 1.05 mg/kg). The other 3 groups were injected HM-3 with a high dose of 4.2 mg/kg, an intermediate dose of 2.1 mg/kg, a low doses of 1.05 mg/kg. Collected whole blood 0.5 ml once from the orbital venous plexus after 0.5 h, 1 h, 2 h, 3 h, 6 h, 12 h, 24 h, 48 h, 72 h, 96 h, 108 h, 132 h of drug administration, and applied heparin to get the effect of anti-coagulation. 12000 rpm/2 min centrifuged plasma. Draw supernatant 200 μl and 80° C. preheated PBS (0.05 M pH7.4) buffer 600 μl and mixed. Bath in the 80° C. water for 30 min. Centrifuged 2 min at 12000 rpm, and collected the supernatant, and stored in the condition of −20° C. Dissolved at room temperature, measured integrin antagonist peptide plasma concentration by ELISA.

[3] = test system: human nasopharyngeal cancer CNE xenograft tumors; assay: Tumor growth inhibition, CNE xenograft; conditions: for Rate of inhibiting tumors / Tumor weight: Once 3 days
Protocol: (§1) Picked the tumor tissue of vigorous growth and was cut into pieces of about 1.5 mm^3. Under sterile conditions, the tumor tissue was inoculated subcutaneously on the right of nude mice. Tumor diameter was measured with a vernier caliper. The animals which had tumors with a size of 100-200 mm^3 were randomly divided into groups. The effect of polypeptide on anti-tumor was dynamically observed through the method of measuring tumor diameter. The times of measuring tumor diameter were once 2 days, and meantime, weighed mice. The mice in experimental group were infused polypeptide through tail vein, once 3 days. The mice in the placebo group were injected saline with the same volume. Tumor volume formula:
a, b respectively represent the length and width. According to the result of measurement, calculate the relative tumor volume. Evaluation of antitumor activity is relative tumor proliferation rate T/C(%). The formula is as follows: T/C(%)^−TRTV/CRTV×100%
(§2) TRTV: Treatment Group RTV; CRTV: Negative Control Group RTV

[4] = test system: human lung cancer H460 xenograft tumors; assay: Tumor growth inhibition, H460 xenograft; conditions: for Rate of inhibiting tumors / Tumor weight: Once 3 days
Protocol: as §1
(§3) a, b respectively represent the length and width. According to the result of measurement, calculate the relative tumor volume. Evaluation of antitumor activity is relative tumor proliferation rate T/C(%). The formula is as follows: T/C(%)^=TRTV/CRTV×100%
(§4) TRTV: Treatment group RTV; CRTV: negative control group RTV

[5] = test system: human endometrial cancer HHUA xenograft tumors; assay: Tumor growth inhibition, HHUA xenograft; conditions: for Rate of inhibiting tumors / Tumor weight: Once 3 days
Protocol: Human endometrial cancer HHUA cell lines in logarithmic growth phase were picked, and made into 5×10^7/ml cell suspension of under sterile conditions, and then 0.1 ml suspension was inoculated subcutaneously at the right armpit of nude mice. Tumor diameter was measured with a vernier caliper. The animals which had tumors with a size of 100-200 mm^3 were randomly divided into groups. The effect of polypeptide on anti-tumor was dynamically observed through the method of measuring tumor diameter. The times of measuring tumor diameter were once 2 days, and meantime, weighed mice. The mice in experimental group were infused polypeptide through tail vein. The mice in the placebo group were injected saline with the same volume, once 1 day; Taxol group: 10 mg/kg, once 1 week; Endostar group: 2.5 mg/kg, once 1 day; The groups of high, intermediate and low polypeptide: 6, 3, 1.5 mg/kg, respectively, once 1 day. After administration, all mice were sacrificed. Stripped the tumors and weighed.

[6] = test system: human cervical cancer HeLa xenograft tumors; assay: Tumor growth inhibition, HeLa xenograft; conditions: for Rate of inhibiting tumors / Tumor weight: Once 3 days
Protocol: Human cervical cancer HeLa cell lines in logarithmic growth phase were picked, and made into 5×10^7/ml cell suspension of under sterile conditions, and then 0.1 ml suspension was inoculated subcutaneously at the right armpit of nude mice. Tumor diameter was measured with a vernier caliper. The animals which had tumors with a size of 100-200 mm^3 were randomly divided into groups. The effect of polypeptide on anti-tumor was dynamically observed through the method of measuring tumor diameter. The times of measuring tumor diameter were once 2 days, and meantime, weighed mice. The mice in experimental group were infused polypeptide through tail vein. The mice in the placebo group were injected saline with the same volume, once 1 day; Taxol group: 10 mg/kg, once 1 week; Endostar group: 2.5 mg/kg, once 1 day; The groups of high, intermediate and low polypeptide: 6, 3, 1.5 mg/kg, respectively, once 1 day. After administration, all mice were sacrificed. Stripped the tumors and weighed.

[7] = test system: human thyroid cancer SW-579 xenograft tumors; assay: Tumor growth inhibition, SW-579 xenograft; conditions: for Rate of inhibiting tumors / Tumor weight: Once 3 day
Protocol: as §1, §3, §2

[8] = test system: human gastric cancer MGC803 xenograft tumors; assay: Tumor growth inhibition, MGC803 xenograft; conditions: for Rate of inhibiting tumors / Tumor weight: Once 3 days
Protocol: as §1, §3, §4

[9] = test system: human gallbladder cancer GBC-SD xenograft tumors; assay: Tumor growth inhibition, GBC-SD xenograft; conditions: for Rate of inhibiting tumors / Tumor weight: Once 3 day
Protocol: Human gallbladder cancer GBC-SD cell lines in logarithmic growth phase were picked and made into 5×10^7/ml cell suspension of under sterile conditions, and then 0.1 ml suspension was inoculated subcutaneously at the right armpit of nude mice. Tumor diameter was measured with a vernier caliper. The animals which had tumors with a size of 100-200 mm^3 were randomly divided into groups. The effect of polypeptide on anti-tumor was dynamically observed through the method of measuring tumor diameter. The times of measuring tumor diameter were once 2 days, and meantime, weighed mice. The mice in experimental group were infused polypeptide through tail vein. The mice in the placebo group were injected saline with the same volume, once 1 day; Taxol group: 10 mg/kg, once 1 week; Endostar group: 2.5 mg/kg, once 1 day; The groups of high, intermediate and low polypeptide: 6, 3, 1.5 mg/kg, respectively, once 1 day. After administration, all mice were sacrificed. Stripped the tumors and weighed.

[10] = test system: human prostate cancer DU-145 xenograft tumors; assay: Tumor growth inhibition, DU-145 xenograft; conditions: for Rate of inhibiting tumors / Tumor weight: Once 3 days
Protocol: Human prostate cancer DU-145 cell lines in logarithmic growth phase were picked, and made into 5×10^7/ml cell suspension of under sterile conditions, and then 0.1 ml suspension was inoculated subcutaneously at the right armpit of nude mice. Tumor diameter was measured with a vernier caliper. The animals which had tumors with a size of 100-200 mm^3 were randomly divided into groups. The effect of polypeptide on anti-tumor was dynamically observed through the method of measuring tumor diameter. The times of measuring tumor diameter were once 2 days, and meantime, weighed mice. The mice in experimental group were infused polypeptide through tail vein. The mice in the placebo group were injected saline with the same volume, once 1 day; Cisplatin group: 10 mg/kg, once 1 week; Endostar group: 2.5 mg/kg, once 1 day; The groups of high, intermediate and low polypeptide: 6, 3, 1.5 mg/kg, respectively, once 1 day. After administration, all mice were sacrificed. Stripped the tumors and weighed.

[11] = test system: human bladder cancer HT1376 xenograft tumors; assay: Tumor growth inhibition, HT1376 xenograft; conditions: for Rate of inhibiting tumors / Tumor weight: Once 3 days
Protocol: Human bladder cancer HT1376 cell lines in logarithmic growth phase were picked, and made into 5×10^7/ml cell suspension of under sterile conditions, and then 0.1 ml suspension was inoculated subcutaneously at the right armpit of nude mice. Tumor diameter was measured with a vernier caliper. The animals which had tumors with a size of 100-200 mm^3 were randomly divided into groups. The effect of polypeptide on anti-tumor was dynamically observed through the method of measuring tumor diameter. The times of measuring tumor diameter were once 2 days, and meantime, weighed mice. The mice in experimental group were infused polypeptide through tail vein. The mice in the placebo group were injected saline with the same volume, once 1 day; Taxol group: 10 mg/kg, once 1 week; Endostar group: 2.5 mg/kg, once 1 day; The groups of high, intermediate and low polypeptide: 6, 3, 1.5 mg/kg, respectively, once 1 day. After administration, all mice were sacrificed. Stripped the tumors and weighed.

[12] = test system: human pancreatic cancer SW-1990 xenograft tumors; assay: Tumor growth inhibition, SW-1990 xenograft; conditions: for Rate of inhibiting tumors / Tumor weight: Once 3 days
Protocol: Picked the tumor tissue of vigorous growth and was cut into pieces of about 1.5 mm^3. Under sterile conditions, the tumor tissue was inoculated subcutaneously on the right of nude mice. Tumor diameter was measured with a Vernier caliper. The animals which had tumors with a size of 100-200 mm^3 were randomly divided into groups. The effect of polypeptide on anti-tumor was dynamically observed through the method of measuring tumor diameter. The times of measuring tumor diameter were once 2 days, and meantime, weighed mice. The mice in experimental group were infused polypeptide through tail vein, once 3 days. The mice in the placebo group were injected saline with the same volume.
as §3
TRTV:Treatment group RTV; CRTV: negative control group RTV

[13] = test system: human ovarian cancer SK-OV-3 xenograft tumors; assay: Tumor growth inhibition, SK-OV-3 xenograft; conditions: for Rate of inhibiting tumors / Tumor weight: Once 3 days
Protocol: Human ovarian cancer SK-OV-3 cell lines in logarithmic growth phase were picked, and made into 5×10^7/ml cell suspension of under sterile conditions, and then 0.1 ml suspension was inoculated subcutaneously at the right armpit of nude mice. Tumor diameter was measured with a vernier caliper. The animals which had tumors with a size of 100-200 mm^3 were randomly divided into groups. The effect of polypeptide on anti-tumor was dynamically observed through the method of measuring tumor diameter. The times of measuring tumor diameter were once 2 days, and meantime, weighed mice. The mice in experimental group were infused polypeptide through tail vein. The mice in the placebo group were injected saline with the same volume, once 1 day; Cisplatin group: 10 mg/kg, once 1 week; Endostar group: 2.5 mg/kg, once 1 day; The groups of high, intermediate and low polypeptide: 6, 3, 1.5 mg/kg, respectively, once 1 day. After administration, all mice were sacrificed. Stripped the tumors and weighed.

[14] = test system: human breast cancer MDA-MB-231 xenograft tumors; assay: Tumor growth inhibition, MDA-MB-231 xenograft; conditions: for Rate of inhibiting tumors / Tumor weight: Once 3 days
Protocol: Picked the tumor tissue of vigorous growth and was cut into pieces of about 1.5 mm^3. Under sterile conditions, the tumor tissue was inoculated subcutaneously on the right of nude mice. Tumor diameter was measured with a vernier caliper. The animals which had tumors with a size of 100-200 mm^3 were randomly divided into groups. The effect of polypeptide on anti-tumor was dynamically observed through the method of measuring tumor diameter. The times of measuring tumor diameter were once 2 days, and meantime, weighed mice. The mice in experimental group were infused polypeptide through tail vein, once 3 days. The mice in the placebo group were injected saline with the same volume. Tumor volume formula: TV=0.52×a×b^2
as §3, §4

[15] = high, 36.7 mg/kg, listed as polypeptide
[16] = low, 9.38 mg/kg, listed as polypeptide
[17] = intermediate, 18.75 mg/kg, listed as polypeptide

## mPEG-SC20k-Ile-Val-Arg-Arg-Ala-Asp-Arg-Ala-Ala-Val-Pro-Gly-Gly-Gly-Gly-Arg-Gly-Asp ({mPEG‑SC20k}-IVRRADRAAVPGGGGRGD) [mPEG-SC20k-HM-3]
[1]; Once 3 days
  Rate of inhibiting tumors: 65.04%*
  Tumor weight: 0.678 g
[1]; Once 3 days, listed as polypeptide
  Rate of inhibiting tumors: 65.04%
[1]; P<0.05
  inhibition of tumor growth compared with negative control: significant inhibition role
[2]; both, SD
  t1/2β: 20.13 h
[2]
  t1/2p: 20.13 h
  t1/2β: 20.13 h
[3]; 36.7 mg/kg, P<0.05
  inhibition of tumor growth compared with negative control: significant inhibition role
[3]; 36.7 mg/kg, compared with positive cisplatin group
  toxic and side effects: no obvious toxic and side effects
[3]; high, 36.7 mg/kg
  Rate of inhibiting tumors: 68.22%*
  Tumor weight: 0.382 g
[3]; [15]
  Rate of inhibiting tumors: 68.22%
[3]; intermediate, 18.75 mg/kg
  Rate of inhibiting tumors: 66.19%
  Tumor weight: 0.406 g
[3]; low, 9.38 mg/kg
  Rate of inhibiting tumors: 55.32%
  Tumor weight: 0.537 g
[3]; [16]
  Rate of inhibiting tumors: 55.32%
[4]; 36.7 mg/kg, P<0.05
  inhibition of tumor growth compared with negative control: significant inhibition role
[4]; high, 36.7 mg/kg
  Rate of inhibiting tumors: 66.45%*
  Tumor weight: 0.266 g
[4]; [15]
  Rate of inhibiting tumors: 66.45%
[4]; intermediate, 18.75 mg/kg
  Rate of inhibiting tumors: 55.37%
  Tumor weight: 0.354 g
[4]; [17]
  Rate of inhibiting tumors: 55.37%
[4]; low, 9.38 mg/kg
  Rate of inhibiting tumors: 54.28%
  Tumor weight: 0.363 g
[4]; [16]
  Rate of inhibiting tumors: 54.28%
[5]; 36.7 mg/kg, P<0.05
  inhibition of tumor growth compared with negative control: significant inhibition role
[5]; high, 36.7 mg/kg
  Rate of inhibiting tumors: 62.47%*
  Tumor weight: 0.453 g
[5]; [15]
  Rate of inhibiting tumors: 62.47%
[5]; intermediate, 18.75 mg/kg
  Rate of inhibiting tumors: 53.65%
  Tumor weight: 0.560 g
[5]; [17]
  Rate of inhibiting tumors: 53.65%
[5]; low, 9.38 mg/kg
  Rate of inhibiting tumors: 51.38%
  Tumor weight: 0.587 g
[5]; [16]
  Rate of inhibiting tumors: 51.38%
[6]; 36.7 mg/kg, P<0.05
  inhibition of tumor growth compared with negative control: significant inhibition role
[6]; high, 36.7 mg/kg
  Rate of inhibiting tumors: 82.07%*
  Tumor weight: 0.222 g
[6]; [15]
  Rate of inhibiting tumors: 82.07%
[6]; intermediate, 18.75 mg/kg
  Rate of inhibiting tumors: 74.11%
  Tumor weight: 0.320 g
[6]; [17]
  Rate of inhibiting tumors: 74.11%
[6]; low, 9.38 mg/kg
  Rate of inhibiting tumors: 63.32%
  Tumor weight: 0.453 g
[6]; [16]
  Rate of inhibiting tumors: 63.32%
[7]; 36.7 mg/kg, P<0.05
  inhibition of tumor growth compared with negative control: significant inhibition role
[7]; 36.7 mg/kg, compared with positive 5-Fu group
  toxic and side effects: no obvious toxic and side effects
[7]; high, 36.7 mg/kg
  Rate of inhibiting tumors: 67.63%*
  Tumor weight: 0.406 g
[7]; [15]
  Rate of inhibiting tumors: 67.63%
[7]; intermediate, 18.75 mg/kg
  Rate of inhibiting tumors: 60.56%
  Tumor weight: 0.494 g
[7]; [17]
  Rate of inhibiting tumors: 60.56%
[7]; low, 9.38 mg/kg
  Rate of inhibiting tumors: 58.42%
  Tumor weight: 0.521 g
[7]; [16]
  Rate of inhibiting tumors: 58.42%
[8]; 36.7 mg/kg, P<0.05
  inhibition of tumor growth compared with negative control: significant inhibition role
[8]; high, 36.7 mg/kg
  Rate of inhibiting tumors: 73.42%*
  Tumor weight: 0.192 g
[8]; [15]
  Rate of inhibiting tumors: 73.42%
[8]; intermediate, 18.75 mg/kg
  Rate of inhibiting tumors: 69.86%
  Tumor weight: 0.218 g
[8]; [17]
  Rate of inhibiting tumors: 69.86%
[8]; low, 9.38 mg/kg
  Rate of inhibiting tumors: 59.57%
  Tumor weight: 0.292 g
[8]; [16]
  Rate of inhibiting tumors: 59.57%
[9]; 36.7 mg/kg, P<0.05
  inhibition of tumor growth compared with negative control: significant inhibition role
[9]; high, 36.7 mg/kg
  Rate of inhibiting tumors: 61.45%*
  Tumor weight: 0.409 g
[9]; [15]
  Rate of inhibiting tumors: 61.45%
[9]; intermediate, 18.75 mg/kg
  Rate of inhibiting tumors: 50.59%
  Tumor weight: 0.524 g
[9]; [17]
  Rate of inhibiting tumors: 50.59%
[9]; low, 9.38 mg/kg
  Rate of inhibiting tumors: 40.32%
  Tumor weight: 0.633 g
[9]; [16]
  Rate of inhibiting tumors: 40.32%
[10]; 36.7 mg/kg, P<0.05
  inhibition of tumor growth compared with negative control: significant inhibition role
[10]; high, 36.7 mg/kg
  Rate of inhibiting tumors: 77.46%*
  Tumor weight: 0.417 g
[10]; [15]
  Rate of inhibiting tumors: 77.46%
[10]; intermediate, 18.75 mg/kg
  Rate of inhibiting tumors: 67.48%
  Tumor weight: 0.603 g
[10]; [17]
  Rate of inhibiting tumors: 67.48%
[10]; low, 9.38 mg/kg
  Rate of inhibiting tumors: 57.87%
  Tumor weight: 0.781 g
[10]; [16]
  Rate of inhibiting tumors: 57.87%
[11]; 36.7 mg/kg, P<0.05
  inhibition of tumor growth compared with negative control: significant inhibition role
[11]; high, 36.7 mg/kg
  Rate of inhibiting tumors: 63.42%*
  Tumor weight: 0.372 g
[11]; [15]
  Rate of inhibiting tumors: 63.42%
[11]; intermediate, 18.75 mg/kg
  Rate of inhibiting tumors: 54.24%
  Tumor weight: 0.466 g
[11]; [17]
  Rate of inhibiting tumors: 54.24%
[11]; low, 9.38 mg/kg
  Rate of inhibiting tumors: 46.39%
  Tumor weight: 0.546 g
[11]; [16]
  Rate of inhibiting tumors: 46.39%
[12]; 36.7 mg/kg, P<0.05
  inhibition of tumor growth compared with negative control: significant inhibition role
[12]; high, 36.7 mg/kg
  Rate of inhibiting tumors: 67.76%*
  Tumor weight: 0.446 g
[12]; [15]
  Rate of inhibiting tumors: 67.76%
[12]; intermediate, 18.75 mg/kg
  Rate of inhibiting tumors: 64.55%
  Tumor weight: 0.491 g
[12]; [17]
  Rate of inhibiting tumors: 64.55%
[12]; low, 9.38 mg/kg
  Rate of inhibiting tumors: 50.40%
  Tumor weight: 0.687 g
[12]; [16]
  Rate of inhibiting tumors: 50.40%
[13]; 36.7 mg/kg, P<0.05
  inhibition of tumor growth compared with negative control: significant inhibition role
[13]; high, 36.7 mg/kg
  Rate of inhibiting tumors: 50.40%*
  Tumor weight: 0.627 g
[13]; [15]
  Rate of inhibiting tumors: 50.40%
[13]; intermediate, 18.75 mg/kg
  Rate of inhibiting tumors: 44.62%
  Tumor weight: 0.700 g
[13]; [17]
  Rate of inhibiting tumors: 44.62%
[13]; low, 9.38 mg/kg
  Rate of inhibiting tumors: 42.33%
  Tumor weight: 0.730 g
[13]; [16]
  Rate of inhibiting tumors: 42.33%
[14]; 36.7 mg/kg, P<0.05
  inhibition of tumor growth compared with negative control: significant inhibition role
[14]; high, 36.7 mg/kg
  Rate of inhibiting tumors: 63.05%*
  Tumor weight: 0.459 g
[14]; [15]
  Rate of inhibiting tumors: 63.05%
[14]; intermediate, 18.75 mg/kg
  Rate of inhibiting tumors: 59.11%
  Tumor weight: 0.508 g
[14]; [17]
  Rate of inhibiting tumors: 59.11%
[14]; low, 9.38 mg/kg
  Rate of inhibiting tumors: 51.01%
  Tumor weight: 0.609 g
[14]; [16]
  Rate of inhibiting tumors: 51.01%
